Reference: US9751888B2, “Heterocyclic compounds and uses thereof” (Infinity Pharmaceuticals, Inc., priority 2013, dated 2017)

Legend:
[1] = target: p110 δ (RAJI cells) (Homo sapiens (Human), UniProt O00329); assay: PI3K-δ selective cellular assay: phospho-AKT in anti-human IgM stimulated RAJI cells; assay type: cell-based; conditions: serum-starved RAJI cells stimulated with anti-human IgM
Description: A compound's ability in selectively inhibiting PI3K-δ can be assessed using RAJI cells, i.e., B lymphocyte cells derived from lymphoma patients. Briefly, serum-starved RAJI cells are stimulated with anti-human IgM, thereby causing signaling through the B-cell receptors, as described in, for example, He et al., Leukemia Research (2009) 33: 798-802. B-cell receptor signaling is important for the activation, differentiation, and survival of B cells and certain B-cell derived cancers. Reduction of phospho-AKT is indicative of compounds that may inhibit B-cell proliferation and function in certain diseases. […] Certain compounds provided herein were tested in RAJI cell model using procedures as described above.

[2] = target: human Class I PI3 kinase α (Homo sapiens (Human), UniProt P42336); assay: PI3-Kinase Promega ADP-Glo Max assay, α isoform; assay type: biochemical; conditions: 20 nM kinase, 3 mM ATP, 500 uM diC8-PtdInsP; read-out: Promega α PI3K IC50
[3] = target: human Class I PI3 kinase β (Homo sapiens (Human), UniProt P42338); assay: PI3-Kinase Promega ADP-Glo Max assay, β isoform; assay type: biochemical; conditions: 40 nM kinase, 3 mM ATP, 500 uM diC8-PtdInsP; read-out: Promega β PI3K IC50
[4] = target: human Class I PI3 kinase γ (Homo sapiens (Human), UniProt P48736); assay: PI3-Kinase Promega ADP-Glo Max assay, γ isoform; assay type: biochemical; conditions: 40 nM kinase, 3 mM ATP, 500 uM diC8-PtdInsP; read-out: Promega γ PI3K IC50
Method: Promega ADP-Glo Max assay kit (Cat. No. V7002) was utilized to determine IC50 values for α, β, δ and γ isoforms of human Class I PI3 kinases (Millipore). Samples of kinase (20 nM α or δ, 40 nM β or γ isoform) were incubated with compound for 15 minutes at room temperature in reaction buffer (15 mM HEPES pH 7.4, 20 mM NaCl, 1 mM EGTA, 0.02% Tween 20, 10 mM MgCl2, 0.2 mg/mL bovine-γ-globulins) followed by addition of ATP/diC8-PtdInsP mixture to give final concentrations of 3 mM ATP and 500 uM diC8-PtdInsP. Reactions were incubated at room temperature for 2 hours followed by addition of 25 uL of stop solution. After a 40-minute incubation at room temperature, 50 uL of Promega detection mix was added followed by incubation for 1 hour at room temperature. Plates were then read on Envision plate reader in luminescence mode. Data was converted to % inhibition using the following equation below:
[formula] where S is the sample luminescence, Pos is a positive control without added PI3K, Neg is the negative control without added compound. Data was then plotted as % inhibition vs compound concentration.
Certain compounds provided herein were tested in PI3-Kinase Promega Assay using procedures as described above to determine IC50 values for α, β, δ and/or γ isoforms.

[5] = target: human Class I PI3 kinase δ (Homo sapiens (Human), UniProt O00329); assay: PI3-Kinase Promega ADP-Glo Max assay, δ isoform; assay type: biochemical; conditions: 20 nM kinase, 3 mM ATP, 500 uM diC8-PtdInsP; read-out: Promega δ PI3K IC50
[6] = target: p110 γ (RAW264.7 cells) (Mus musculus (Mouse), UniProt Q9JHG7); assay: PI3K-γ selective cellular assay: phospho-AKT in C5a stimulated RAW264.7 macrophages; assay type: cell-based; conditions: serum-starved RAW264.7 cells stimulated with C5a
Method: Certain compounds provided herein were tested in RAW 264.7 cell model using procedures as described above.

Sequence of p110 γ (RAW264.7 cells) (Q9JHG7 whole entry): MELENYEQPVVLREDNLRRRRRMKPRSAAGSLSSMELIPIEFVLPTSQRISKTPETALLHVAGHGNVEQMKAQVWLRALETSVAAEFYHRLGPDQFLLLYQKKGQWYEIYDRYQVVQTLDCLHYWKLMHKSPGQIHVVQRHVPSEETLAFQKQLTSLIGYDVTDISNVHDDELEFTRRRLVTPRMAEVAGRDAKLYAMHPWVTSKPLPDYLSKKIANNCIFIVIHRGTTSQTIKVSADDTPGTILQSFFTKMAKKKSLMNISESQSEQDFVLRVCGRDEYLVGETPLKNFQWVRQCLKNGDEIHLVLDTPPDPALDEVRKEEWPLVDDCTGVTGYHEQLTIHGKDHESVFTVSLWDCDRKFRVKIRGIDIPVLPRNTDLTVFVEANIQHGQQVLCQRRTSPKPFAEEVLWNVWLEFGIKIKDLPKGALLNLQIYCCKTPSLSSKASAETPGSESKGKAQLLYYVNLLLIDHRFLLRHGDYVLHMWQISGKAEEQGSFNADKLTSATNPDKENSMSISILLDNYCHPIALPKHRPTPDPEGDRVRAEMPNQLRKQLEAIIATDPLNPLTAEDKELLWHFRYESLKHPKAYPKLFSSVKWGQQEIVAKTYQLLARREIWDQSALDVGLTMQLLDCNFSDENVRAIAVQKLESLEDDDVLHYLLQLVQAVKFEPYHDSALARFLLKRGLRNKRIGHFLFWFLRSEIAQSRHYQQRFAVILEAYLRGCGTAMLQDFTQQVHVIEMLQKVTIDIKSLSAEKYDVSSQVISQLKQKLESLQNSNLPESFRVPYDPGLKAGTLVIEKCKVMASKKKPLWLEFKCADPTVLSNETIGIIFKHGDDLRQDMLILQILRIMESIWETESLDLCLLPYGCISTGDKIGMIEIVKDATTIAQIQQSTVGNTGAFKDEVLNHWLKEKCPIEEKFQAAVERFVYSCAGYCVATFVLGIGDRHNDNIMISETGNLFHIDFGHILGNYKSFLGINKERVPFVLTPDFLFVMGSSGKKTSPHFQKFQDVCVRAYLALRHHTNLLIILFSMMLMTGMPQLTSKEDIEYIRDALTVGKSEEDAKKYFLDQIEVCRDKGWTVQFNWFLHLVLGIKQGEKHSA
Sequence of human Class I PI3 kinase γ (P48736 whole entry, canonical isoform): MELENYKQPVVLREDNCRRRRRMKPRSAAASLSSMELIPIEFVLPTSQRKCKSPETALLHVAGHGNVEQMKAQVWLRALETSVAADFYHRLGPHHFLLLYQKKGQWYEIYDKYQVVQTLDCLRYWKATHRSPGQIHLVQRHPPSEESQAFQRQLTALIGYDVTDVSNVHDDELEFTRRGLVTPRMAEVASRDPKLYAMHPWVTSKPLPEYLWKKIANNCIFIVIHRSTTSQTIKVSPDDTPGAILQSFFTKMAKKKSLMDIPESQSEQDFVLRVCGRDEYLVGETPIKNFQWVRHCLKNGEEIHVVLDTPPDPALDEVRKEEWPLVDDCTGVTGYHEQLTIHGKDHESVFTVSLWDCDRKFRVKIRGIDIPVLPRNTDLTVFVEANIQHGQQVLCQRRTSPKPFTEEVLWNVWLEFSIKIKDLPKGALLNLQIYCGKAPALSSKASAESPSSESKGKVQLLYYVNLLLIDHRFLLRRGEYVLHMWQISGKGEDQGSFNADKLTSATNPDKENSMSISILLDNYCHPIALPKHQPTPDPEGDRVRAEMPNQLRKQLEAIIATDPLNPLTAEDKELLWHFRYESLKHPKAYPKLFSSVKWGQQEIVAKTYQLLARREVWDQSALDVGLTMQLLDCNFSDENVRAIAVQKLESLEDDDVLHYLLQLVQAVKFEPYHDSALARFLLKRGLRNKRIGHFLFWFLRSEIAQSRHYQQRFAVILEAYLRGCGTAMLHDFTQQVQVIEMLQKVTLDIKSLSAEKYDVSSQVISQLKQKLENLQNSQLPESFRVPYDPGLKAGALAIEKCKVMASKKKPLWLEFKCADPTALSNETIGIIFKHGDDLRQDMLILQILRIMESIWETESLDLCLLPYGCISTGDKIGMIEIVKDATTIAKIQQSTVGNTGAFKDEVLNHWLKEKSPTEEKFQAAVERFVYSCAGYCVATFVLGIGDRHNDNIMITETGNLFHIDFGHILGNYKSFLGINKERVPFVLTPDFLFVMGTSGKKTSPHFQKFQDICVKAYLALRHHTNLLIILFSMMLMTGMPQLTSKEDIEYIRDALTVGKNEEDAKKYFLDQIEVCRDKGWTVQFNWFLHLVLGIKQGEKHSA
Sequence of human Class I PI3 kinase δ (O00329 whole entry, canonical isoform): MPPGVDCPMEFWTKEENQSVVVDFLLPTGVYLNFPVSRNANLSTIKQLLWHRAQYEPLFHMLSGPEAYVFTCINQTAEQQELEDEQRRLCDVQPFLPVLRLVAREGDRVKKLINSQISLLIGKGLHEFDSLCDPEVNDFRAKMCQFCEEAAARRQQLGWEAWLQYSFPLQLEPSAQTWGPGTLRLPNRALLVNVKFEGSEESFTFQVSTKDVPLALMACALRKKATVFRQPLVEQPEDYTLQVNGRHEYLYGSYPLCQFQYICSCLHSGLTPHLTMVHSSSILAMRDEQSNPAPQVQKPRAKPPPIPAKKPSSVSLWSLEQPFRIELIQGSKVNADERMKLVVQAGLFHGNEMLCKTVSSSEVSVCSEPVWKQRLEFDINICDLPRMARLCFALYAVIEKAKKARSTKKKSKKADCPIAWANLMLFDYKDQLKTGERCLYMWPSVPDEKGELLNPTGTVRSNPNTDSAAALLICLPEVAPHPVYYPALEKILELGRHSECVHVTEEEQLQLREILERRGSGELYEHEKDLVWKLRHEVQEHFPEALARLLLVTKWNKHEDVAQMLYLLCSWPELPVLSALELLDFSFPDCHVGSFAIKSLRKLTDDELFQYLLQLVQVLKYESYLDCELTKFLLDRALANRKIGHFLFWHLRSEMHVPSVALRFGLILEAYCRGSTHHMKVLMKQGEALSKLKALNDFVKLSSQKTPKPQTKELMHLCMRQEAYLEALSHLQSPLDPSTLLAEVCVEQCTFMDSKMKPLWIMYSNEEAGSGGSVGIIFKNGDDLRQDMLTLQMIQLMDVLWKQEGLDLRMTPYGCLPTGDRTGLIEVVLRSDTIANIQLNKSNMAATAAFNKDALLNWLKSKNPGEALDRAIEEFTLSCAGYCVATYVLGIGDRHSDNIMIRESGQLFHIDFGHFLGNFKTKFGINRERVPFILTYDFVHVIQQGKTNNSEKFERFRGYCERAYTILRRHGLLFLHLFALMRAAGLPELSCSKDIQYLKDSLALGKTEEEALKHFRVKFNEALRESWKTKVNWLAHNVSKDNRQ
Sequence of human Class I PI3 kinase δ (P27986 whole entry partner, canonical isoform): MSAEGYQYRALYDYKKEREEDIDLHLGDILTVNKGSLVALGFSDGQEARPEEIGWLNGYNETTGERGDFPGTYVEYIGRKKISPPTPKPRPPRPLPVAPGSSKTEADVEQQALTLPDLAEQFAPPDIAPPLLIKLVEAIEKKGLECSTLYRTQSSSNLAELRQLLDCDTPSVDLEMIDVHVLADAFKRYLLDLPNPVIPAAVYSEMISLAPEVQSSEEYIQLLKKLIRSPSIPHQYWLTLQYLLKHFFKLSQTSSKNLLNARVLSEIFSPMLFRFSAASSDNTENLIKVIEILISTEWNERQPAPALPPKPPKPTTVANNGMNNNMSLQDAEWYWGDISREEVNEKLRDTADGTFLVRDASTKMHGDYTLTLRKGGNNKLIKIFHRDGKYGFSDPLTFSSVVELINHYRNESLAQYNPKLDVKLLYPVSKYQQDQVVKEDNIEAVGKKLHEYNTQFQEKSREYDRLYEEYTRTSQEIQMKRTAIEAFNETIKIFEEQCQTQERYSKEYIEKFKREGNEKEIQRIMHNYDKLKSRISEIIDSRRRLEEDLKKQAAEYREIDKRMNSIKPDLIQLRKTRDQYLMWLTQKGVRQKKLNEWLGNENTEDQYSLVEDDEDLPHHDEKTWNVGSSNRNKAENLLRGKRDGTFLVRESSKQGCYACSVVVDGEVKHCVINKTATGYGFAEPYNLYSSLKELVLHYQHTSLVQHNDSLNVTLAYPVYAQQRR
Sequence of p110 δ (RAJI cells) (O00329 whole entry): as the sequence (O00329 whole entry, canonical isoform) above
Sequence of p110 δ (RAJI cells) (P27986 whole entry partner): as the sequence (P27986 whole entry partner, canonical isoform) above

| IC50 [1] [nM] | IC50 [2] [nM] | IC50 [3] [nM] | IC50 [4] [nM] | IC50 [5] [nM] | IC50 [6] [nM] | SMILES |
| --- | --- | --- | --- | --- | --- | --- |
| 100 to 500 | 1000 to 10000 | 500 to 1000 | 1000 to 10000 | 1000 to 10000 | 1000 to 10000 | C[C@H](NC(=O)c1c(N)nn2cccnc12)c1cc2cccc(Cl)c2c(=O)n1-c1ccc(NS(C)(=O)=O)cc1 [Compound 81] |
| 10 to 100 | 1000 to 10000 | 1000 to 10000 | 500 to 1000 | 1000 to 10000 | 10 to 100 | Cc1ccnc2c(C(=O)N[C@@H](C)c3cc4cccc(Cl)c4c(=O)n3-c3ccccc3)c(N)nn12 [Compound 82] |
| 1000 to 10000 | 1000 to 10000 | 1000 to 10000 | 1000 to 10000 | 1000 to 10000 | 500 to 1000 | C[C@H](NC(=O)c1c(N)nn2cccnc12)c1cc2cccc(Cl)c2c(=O)n1-c1ccccc1S(C)(=O)=O [Compound 83] |
| 10 to 100 | 1000 to 10000 | 100 to 500 | 100 to 500 | 500 to 1000 | 10 to 100 | C[C@H](NC(=O)c1c(N)nn2cccnc12)c1cc2cccc(Cl)c2c(=O)n1-c1ccccc1F [Compound 84] |
| 100 to 500 | 1000 to 10000 | 500 to 1000 | 100 to 500 | 500 to 1000 | 10 to 100 | COc1ccccc1-n1c([C@H](C)NC(=O)c2c(N)nn3cccnc23)cc2cccc(Cl)c2c1=O [Compound 85] |
| 1000 to 10000 | 1000 to 10000 | 1000 to 10000 | 1000 to 10000 | 1000 to 10000 | 100 to 500 | C[C@H](NC(=O)c1c(N)nn2cccnc12)c1cc2cccc(OCC(F)(F)F)c2c(=O)n1-c1ccccc1 [Compound 86] |
| 100 to 500 | 1000 to 10000 | 1000 to 10000 | 1000 to 10000 | 1000 to 10000 | 100 to 500 | C[C@H](NC(=O)c1c(N)nn2cccnc12)c1nc2c(Cl)cccc2c(=O)n1-c1ccccc1 [Compound 87] |
| 100 to 500 | 1000 to 10000 | 1000 to 10000 | 500 to 1000 | 500 to 1000 | 10 to 100 | CC(=O)Cc1cccc2nc([C@H](C)NC(=O)c3c(N)nn4cccnc34)n(-c3ccccc3)c(=O)c12 [Compound 89] |
| 1000 to 10000 | 1000 to 10000 | 1000 to 10000 | 1000 to 10000 | 1000 to 10000 | 500 to 1000 | C[C@H](NC(=O)c1c(N)nn2cccnc12)c1nc2cccc(N3CCOCC3)c2c(=O)n1-c1ccccc1 [Compound 90] |
| 100 to 500 | 1000 to 10000 | 1000 to 10000 | 500 to 1000 | 1000 to 10000 | 10 to 100 | C[C@H](NC(=O)c1c(N)nn2cccnc12)c1nc2cccc(Cl)c2c(=O)n1-c1ccc(F)c(F)c1 [Compound 91] |
| 100 to 500 | 1000 to 10000 | 1000 to 10000 | 1000 to 10000 | 1000 to 10000 | 100 to 500 | Cc1cccc2c(=O)n(-c3ccccc3)c([C@H](C)NC(=O)c3c(N)nn4cccnc34)nc12 [Compound 92] |
| 500 to 1000 | 1000 to 10000 | 1000 to 10000 | 1000 to 10000 | 1000 to 10000 | 100 to 500 | C[C@H](NC(=O)c1c(N)nn2cccnc12)c1cc2cccc(CC(=O)C(C)(C)C)c2c(=O)n1-c1ccccc1 [Compound 94] |
| 10 to 100 | 1000 to 10000 | 1000 to 10000 | 100 to 500 | 500 to 1000 | 10 to 100 | C[C@H](NC(=O)c1c(N)nn2cccnc12)c1nc2ccccc2c(=O)n1-c1ccccc1 [Compound 95] |
| 100 to 500 | 1000 to 10000 | 1000 to 10000 | 1000 to 10000 | 1000 to 10000 | 100 to 500 | C[C@H](NC(=O)c1c(N)nn2cccnc12)c1oc2ccc(F)cc2c(=O)c1-c1ccccc1 [Compound 96] |
